Assay results published in patent US12435044B2, “Pyridazinone herbicides and pyridazinone intermediates used to prepare a herbicide” (FMC Corporation, priority 2018, dated 2025).

Tests used:
Experiment in all cases: Test C pre-/postemergence greenhouse test
Format in all cases: in vivo
Details in all cases: scale 0 to 100
[1] = system: barnyardgrass (Echinochloa crus-galli)
Text: (§1) Seeds of plant species selected from blackgrass (Alopecurus myosuroides), ryegrass, Italian (Lolium multiflorum), wheat, winter (winter wheat, Triticum aestivum), galium (catchweed bedstraw, Galium aparine), corn (Zea mays), crabgrass, large (Digitaria sanguinalis), foxtail, giant (Setaria faberii), johnsongrass (Sorghum halepense), lambsquarters (Chenopodium album), morningglory (Ipomoea coccinea), nutsedge, yellow (Cyperus esculentus), pigweed (Amaranthus retroflexus), ragweed (common ragweed, Ambrosia elatior), soybean (Glycine max), barnyardgrass (Echinochloa crus-galli), oilseed rape (Brassica napus), waterhemp (common waterhemp, Amaranthus rudis), pigweed, palmer (Amaranthus palmeri), kochia (Kochia scoparia), oat, wild (Avena fatua), surinam grass (Brachiaria decumbens), windgrass (Apera spica-venti), poinsettia, wild (Euphorbia heterophylla) and velvetleaf (Abutilon theophrasti) were planted into a silt loam soil and treated preemergence with test chemicals formulated in a non-phytotoxic solvent mixture which included a surfactant.
(§2) At the same time, plants selected from these crop and weed species and also chickweed (common chickweed, Stellaria media), buckwheat, wild (Polygonum convolvulus), mustard, wild (Sinapis arvensis), field poppy (Papaver rhoeas), field violet (Viola arvensis), nightshade (eastern black nightshade, Solanum ptycanthum), speedwell (bird's-eye speedwell, Veronica persica), horseweed (Conyza canadensis), cutleaf geranium (Geranium dissectum), and Canada thistle (Cirsium arvense) were planted in pots containing Redi-Earth® planting medium (Scotts Company, 14111 Scottslawn Road, Marysville, Ohio 43041) comprising spaghnum peat moss, vermiculite, wetting agent and starter nutrients and treated with postemergence applications of test chemicals formulated in the same manner. Plants ranged in height from 2 to 18 cm (1- to 4-leaf stage) for postemergence treatments. Treated plants and controls were maintained in a greenhouse for 13 to 21 d, after which time all species were compared to controls and visually evaluated. Plant response ratings, summarized in Table C-1 (postemergence) and C-2 (preemergence), are based on a scale of 0 to 100 where 0 is no effect and 100 is complete control. A dash (-) response means no test result.

[2] = system: blackgrass (Alopecurus myosuroides)
Text: as §1, §2

corn (Zea mays) = system: corn (Zea mays)
Text: as §1, §2

[3] = system: crabgrass, large (Digitaria sanguinalis)
Text: as §1, §2

[4] = system: galium (catchweed bedstraw, Galium aparine)
Text: as §1, §2

[5] = system: johnsongrass (Sorghum halepense)
Text: as §1, §2

[6] = system: lambsquarters (Chenopodium album)
Text: as §1, §2

[7] = system: morningglory (Ipomoea coccinea)
Text: as §1, §2

[8] = system: oilseed rape (Brassica napus)
Text: as §1, §2

[9] = system: poinsettia, wild (Euphorbia heterophylla)
Text: as §1, §2

[10] = system: ragweed (common ragweed, Ambrosia elatior)
Text: as §1, §2

soybean (Glycine max) = system: soybean (Glycine max)
Text: as §1, §2

[11] = system: windgrass (Apera spica-venti)
Text: as §1, §2

Structure (SMILES): Cc1cc(Cl)c2ccccc2c1-c1c(O)c(Cl)nn(C)c1=O [Cpd. No. 65]
- Plant response rating, Barnyardgrass ([1]; Postemergence, 16 g ai/ha): 80
- Plant response rating, Barnyardgrass ([1]; Postemergence, 31 g ai/ha): 85
- Plant response rating, Barnyardgrass ([1]; Postemergence, 62 g ai/ha): 100
- Plant response rating, Barnyardgrass ([1]; Postemergence, 125 g ai/ha): 100
- Plant response rating, Barnyardgrass ([1]; Preemergence, 31 g ai/ha): 20
- Plant response rating, Barnyardgrass ([1]; Preemergence, 61 g ai/ha): 10
- Plant response rating, Barnyardgrass ([1]; Preemergence, 62 g ai/ha): 60
- Plant response rating, Barnyardgrass ([1]; Preemergence, 125 g ai/ha): 75
- Plant response rating, Blackgrass ([2]; Postemergence, 16 g ai/ha): 55
- Plant response rating, Blackgrass ([2]; Postemergence, 31 g ai/ha): 90
- Plant response rating, Blackgrass ([2]; Postemergence, 62 g ai/ha): 90
- Plant response rating, Blackgrass ([2]; Postemergence, 125 g ai/ha): 95
- Plant response rating, Blackgrass ([2]; Preemergence, 31 g ai/ha): 5
- Plant response rating, Blackgrass ([2]; Preemergence, 61 g ai/ha): 10
- Plant response rating, Blackgrass ([2]; Preemergence, 62 g ai/ha): 55
- Plant response rating, Blackgrass ([2]; Preemergence, 125 g ai/ha): 85
- Plant response rating, Corn (corn (Zea mays); Postemergence, 16 g ai/ha): 30
- Plant response rating, Corn (corn (Zea mays); Postemergence, 31 g ai/ha): 40
- Plant response rating, Corn (corn (Zea mays); Postemergence, 62 g ai/ha): 65
- Plant response rating, Corn (corn (Zea mays); Postemergence, 125 g ai/ha): 75
- Plant response rating, Corn (corn (Zea mays); Preemergence, 31 g ai/ha): 0
- Plant response rating, Corn (corn (Zea mays); Preemergence, 61 g ai/ha): 0
- Plant response rating, Corn (corn (Zea mays); Preemergence, 62 g ai/ha): 5
- Plant response rating, Corn (corn (Zea mays); Preemergence, 125 g ai/ha): 15
- Plant response rating, Crabgrass, Large ([3]; Postemergence, 16 g ai/ha): 30
- Plant response rating, Crabgrass, Large ([3]; Postemergence, 31 g ai/ha): 40
- Plant response rating, Crabgrass, Large ([3]; Postemergence, 62 g ai/ha): 40
- Plant response rating, Crabgrass, Large ([3]; Postemergence, 125 g ai/ha): 70
- Plant response rating, Crabgrass, Large ([3]; Preemergence, 31 g ai/ha): 0
- Plant response rating, Crabgrass, Large ([3]; Preemergence, 61 g ai/ha): 0
- Plant response rating, Crabgrass, Large ([3]; Preemergence, 62 g ai/ha): 60
- Plant response rating, Crabgrass, Large ([3]; Preemergence, 125 g ai/ha): 65
- Plant response rating, Galium ([4]; Postemergence, 16 g ai/ha): 90
- Plant response rating, Galium ([4]; Postemergence, 31 g ai/ha): 90
- Plant response rating, Galium ([4]; Postemergence, 62 g ai/ha): 95
- Plant response rating, Galium ([4]; Postemergence, 125 g ai/ha): 98
- Plant response rating, Galium ([4]; Preemergence, 31 g ai/ha): 85
- Plant response rating, Galium ([4]; Preemergence, 61 g ai/ha): 0
- Plant response rating, Galium ([4]; Preemergence, 62 g ai/ha): 98
- Plant response rating, Galium ([4]; Preemergence, 125 g ai/ha): 100
- Plant response rating, Johnsongrass ([5]; Postemergence, 16 g ai/ha): 20
- Plant response rating, Johnsongrass ([5]; Postemergence, 31 g ai/ha): 40
- Plant response rating, Johnsongrass ([5]; Postemergence, 62 g ai/ha): 75
- Plant response rating, Johnsongrass ([5]; Postemergence, 125 g ai/ha): 85
- Plant response rating, Johnsongrass ([5]; Preemergence, 31 g ai/ha): 5
- Plant response rating, Johnsongrass ([5]; Preemergence, 61 g ai/ha): 0
- Plant response rating, Johnsongrass ([5]; Preemergence, 62 g ai/ha): 5
- Plant response rating, Johnsongrass ([5]; Preemergence, 125 g ai/ha): 20
- Plant response rating, Lambsquarters ([6]; Postemergence, 16 g ai/ha): 90
- Plant response rating, Lambsquarters ([6]; Postemergence, 31 g ai/ha): 98
- Plant response rating, Lambsquarters ([6]; Postemergence, 62 g ai/ha): 100
- Plant response rating, Lambsquarters ([6]; Postemergence, 125 g ai/ha): 100
- Plant response rating, Lambsquarters ([6]; Preemergence, 31 g ai/ha): 80
- Plant response rating, Lambsquarters ([6]; Preemergence, 61 g ai/ha): 20
- Plant response rating, Lambsquarters ([6]; Preemergence, 62 g ai/ha): 90
- Plant response rating, Lambsquarters ([6]; Preemergence, 125 g ai/ha): 100
- Plant response rating, Morningglory ([7]; Postemergence, 16 g ai/ha): 98
- Plant response rating, Morningglory ([7]; Postemergence, 31 g ai/ha): 100
- Plant response rating, Morningglory ([7]; Postemergence, 62 g ai/ha): 100
- Plant response rating, Morningglory ([7]; Postemergence, 125 g ai/ha): 100
- Plant response rating, Morningglory ([7]; Preemergence, 31 g ai/ha): 90
- Plant response rating, Morningglory ([7]; Preemergence, 61 g ai/ha): 55
- Plant response rating, Morningglory ([7]; Preemergence, 62 g ai/ha): 98
- Plant response rating, Morningglory ([7]; Preemergence, 125 g ai/ha): 95
- Plant response rating, Oilseed Rape ([8]; Postemergence, 16 g ai/ha): 95
- Plant response rating, Oilseed Rape ([8]; Postemergence, 31 g ai/ha): 100
- Plant response rating, Oilseed Rape ([8]; Postemergence, 62 g ai/ha): 100
- Plant response rating, Oilseed Rape ([8]; Postemergence, 125 g ai/ha): 100
- Plant response rating, Oilseed Rape ([8]; Preemergence, 31 g ai/ha): 5
- Plant response rating, Oilseed Rape ([8]; Preemergence, 61 g ai/ha): 5
- Plant response rating, Oilseed Rape ([8]; Preemergence, 62 g ai/ha): 98
- Plant response rating, Oilseed Rape ([8]; Preemergence, 125 g ai/ha): 100
- Plant response rating, Poinsettia, Wild ([9]; Postemergence, 16 g ai/ha): 70
- Plant response rating, Poinsettia, Wild ([9]; Postemergence, 31 g ai/ha): 95
- Plant response rating, Poinsettia, Wild ([9]; Postemergence, 62 g ai/ha): 80
- Plant response rating, Poinsettia, Wild ([9]; Postemergence, 125 g ai/ha): 100
- Plant response rating, Poinsettia, Wild ([9]; Preemergence, 31 g ai/ha): 35
- Plant response rating, Poinsettia, Wild ([9]; Preemergence, 61 g ai/ha): 25
- Plant response rating, Poinsettia, Wild ([9]; Preemergence, 62 g ai/ha): 70
- Plant response rating, Poinsettia, Wild ([9]; Preemergence, 125 g ai/ha): 100
- Plant response rating, Ragweed ([10]; Postemergence, 16 g ai/ha): 98
- Plant response rating, Ragweed ([10]; Postemergence, 31 g ai/ha): 100
- Plant response rating, Ragweed ([10]; Postemergence, 62 g ai/ha): 98
- Plant response rating, Ragweed ([10]; Postemergence, 125 g ai/ha): 98
- Plant response rating, Ragweed ([10]; Preemergence, 31 g ai/ha): 95
- Plant response rating, Ragweed ([10]; Preemergence, 61 g ai/ha): 65
- Plant response rating, Ragweed ([10]; Preemergence, 62 g ai/ha): 98
- Plant response rating, Ragweed ([10]; Preemergence, 125 g ai/ha): 100
- Plant response rating, Soybean (soybean (Glycine max); Postemergence, 16 g ai/ha): 65
- Plant response rating, Soybean (soybean (Glycine max); Postemergence, 31 g ai/ha): 75
- Plant response rating, Soybean (soybean (Glycine max); Postemergence, 62 g ai/ha): 80
- Plant response rating, Soybean (soybean (Glycine max); Postemergence, 125 g ai/ha): 85
- Plant response rating, Soybean (soybean (Glycine max); Preemergence, 31 g ai/ha): 0
- Plant response rating, Soybean (soybean (Glycine max); Preemergence, 61 g ai/ha): 0
- Plant response rating, Soybean (soybean (Glycine max); Preemergence, 62 g ai/ha): 5
- Plant response rating, Soybean (soybean (Glycine max); Preemergence, 125 g ai/ha): 30
- Plant response rating, Windgrass ([11]; Postemergence, 16 g ai/ha): 90
- Plant response rating, Windgrass ([11]; Postemergence, 31 g ai/ha): 90
- Plant response rating, Windgrass ([11]; Postemergence, 62 g ai/ha): 95
- Plant response rating, Windgrass ([11]; Postemergence, 125 g ai/ha): 95
- Plant response rating, Windgrass ([11]; Preemergence, 31 g ai/ha): 80
- Plant response rating, Windgrass ([11]; Preemergence, 61 g ai/ha): 50
- Plant response rating, Windgrass ([11]; Preemergence, 62 g ai/ha): 95
- Plant response rating, Windgrass ([11]; Preemergence, 125 g ai/ha): 100
